Experimental data published in patent US7935482B2, “Gene expression profiling for identification monitoring and treatment of rheumatoid arthritis” (Source Precision Medicine, Inc., priority 2005, dated 2011).

Assays:
[1] = tested on: Inflammation Gene Expression Panel (inflammation index); experiment: Inflammation index from whole-blood Gene Expression Profile of RA patients under therapy; assay type: in vivo, human; details: for inflammation index compared to normal: clinically stable RA patients, 10 per treatment group, FIGS. 9-11, Remicade: all but one of the patients
Description: The values Ci and P(i) may be determined in a number of ways, so that the index I is informative of the pertinent biological condition. One way is to apply statistical techniques, such as latent class modeling, to the profile data sets to correlate clinical data or experimentally derived data, or other data pertinent to the biological condition. In this connection, for example, may be employed the software from Statistical Innovations, Belmont, Mass., called Latent Gold®. Alternatively, other simpler modeling techniques may be employed in a manner known in the art. The index function for inflammation may be constructed, for example, in a manner that a greater degree of inflammation (as determined by the profile data set for the Inflammation Gene Expression Panel included in Tables 1 and 2) correlates with a large value of the index function. In a simple embodiment, therefore, each P(i) may be +1 or −1, depending on whether the constituent increases or decreases with increasing inflammation. As discussed in further detail below, a meaningful inflammation index that is proportional to the expression, referred to herein as IR-105, was constructed as follows: ¼{IL1A}+¼{IL1B}+¼{TNF}+¼{INFG}[…],
FIG. 4A further illustrates the consistency of inflammatory gene expression, illustrated here with respect to 7 loci of (of the Inflammation Gene Expression Panel included in Tables 1 and 2), in a set of 44 normal, undiagnosed blood donors. For each individual locus is shown the range of values lying within ±2 standard deviations of the mean expression value, which corresponds to 95% of a normally distributed population. Notwithstanding the great width of the confidence interval (95%), the measured gene expression value (ΔCt)—remarkably—still lies within 10% of the mean, regardless of the expression level involved. As described in further detail below, for a given biological condition an index can be constructed to provide a measurement of the condition. This is possible as a result of the conjunction of two circumstances: (i) there is a remarkable consistency of Gene Expression Profiles with respect to a biological condition across a population and (ii) there can be employed procedures that provide substantially reproducible measurement of constituents in a Gene Expression Panel giving rise to a Gene Expression Profile, under measurement conditions wherein specificity and efficiencies of amplification for all constituents of the panel are substantially similar and which therefore provides a measurement of a biological condition. Accordingly, a function of the expression values of representative constituent loci of FIG. 4A is here used to generate an inflammation index value, which is normalized so that a reading of 1 corresponds to constituent expression values of healthy subjects, as shown in the right-hand portion of FIG. 4A.
FIG. 4C illustrates the use of the same index as FIG. 4B, where the inflammation median for a normal population of subjects has been set to zero and both normal and diseased subjects are plotted in standard deviation units relative to that median. An inflammation index value was determined for each member of a normal, undiagnosed population of 70 individuals (black bars). The resulting distribution of index values, shown in FIG. 4C, can be seen to approximate closely a normal distribution. Similarly, index values were calculated for individuals from two diseased population groups, (1) rheumatoid arthritis patients treated with methotrexate (MTX) who are about to change therapy to more efficacious drugs (e.g., TNF inhibitors)(hatched bars), and (2) rheumatoid arthritis patients treated with disease modifying anti-rheumatoid drugs (DMARDS) other than MTX, who are about to change therapy to more efficacious drugs (e.g., MTX). […] This figure thus illustrates the utility of an index to derived from Gene Expression Profile data to evaluate disease status and to provide an objective and quantifiable treatment objective. […]

[2] = tested on: Inflammation Gene Expression Panel; experiment: Quantitative RT-PCR gene expression in whole blood of treated RA patients relative to normal mean; assay type: in vivo, human; details: 22 patients pooled
Description: For measuring the amount of a particular RNA in a sample, methods known to one of ordinary skill in the art were used to extract and quantify transcribed RNA from a sample with respect to a constituent of a Gene Expression Panel. (See detailed protocols below. Also see PCT application publication number WO 98/24935 herein incorporated by reference for RNA analysis protocols). Briefly, RNA is extracted from a sample such as a tissue, body fluid, or culture medium in which a population of cells of a subject might be growing. For example, cells may be lysed and RNA eluted in a suitable solution in which to conduct a DNAse reaction. First strand synthesis may be performed using a reverse transcriptase. Gene amplification, more specifically quantitative PCR assays, can then be conducted and the gene of interest calibrated against an internal marker such as 18S rRNA (Hirayama et al., Blood 92, 1998: 46-52). Any other endogenous marker can be used, such as 28S-25S rRNA and 5S rRNA. Samples are measured in multiple replicates, for example, 3 replicates. In an embodiment of the invention, quantitative PCR is performed using amplification, reporting agents and instruments such as those supplied commercially by Applied Biosystems (Foster City, Calif.). Given a defined efficiency of amplification of target transcripts, the point (e.g., cycle number) that signal from amplified target template is detectable may be directly related to the amount of specific message transcript in the measured sample. Similarly, other quantifiable signals such as fluorescence, enzyme activity, disintegrations per minute, absorbance, etc., when correlated to a known concentration of target templates (e.g., a reference standard curve) or normalized to a standard with limited variability can be used to quantify the number of target templates in an unknown sample.
As part of a larger international study involving patients with rheumatoid arthritis, the subject was followed over a twelve-week period. The subject was enrolled in the study because of a failure to respond to conservative drug therapy for rheumatoid arthritis and a plan to change therapy and begin immediate treatment with a TNF-inhibiting compound. Blood was drawn from the subject prior to initiation of new therapy (visit 1). After initiation of new TNF-inhibiting therapy, blood was drawn at 4 weeks post change in therapy (visit 2), 8 weeks (visit 3), and 12 weeks (visit 4) following the start of new therapy. Blood was collected using the PAXgene Blood RNA System™, held at room temperature for two hours and then frozen at −30° C.
Frozen samples were shipped to the central laboratory at Source Precision Medicine, the assignee herein, in Boulder, Colo. for determination of expression levels of genes in the 48-gene inflammation gene expression panel included in Tables 1 and 2. The blood samples were thawed and RNA extracted according to the manufacturer's recommended procedure. RNA was converted to cDNA and the level of expression of the 48 inflammatory genes was determined. Expression results are shown for 11 of the 48 loci in FIG. 3. […] Similarly, gene expression levels at each of the subsequent physician visits for each locus are compared to the same normal average value. […] In each visit following the change in the therapy, the level of inflammatory gene expression for 10 of the 11 loci is closer to the cognate locus average previously determined for the normal (i.e., undiagnosed, healthy) patient set. […]

[3] = Clinical assessment of RA patients during therapy (DAS, SJC, TJ, MDAD, HAQ); assay type: in vivo, human; details: 22 RA patients pooled over both regimens, FIG. 23; for Disease Activity Score (DAS): baseline 6.51
[4] = human, in vivo; cited from earlier work
[5] = end of the study, 12 genes examined, FIG. 17

## etanercept [Enbrel]
[1]; 10 clinically stable RA patients, FIG. 10
  patients with inflammation index in the normal range: 80%
[1]
  inflammation index compared to normal: comes much closer to normal

## CN(Cc1cnc2nc(N)nc(N)c2n1)c1ccc(C(=O)N[C@@H](CCC(=O)O)C(=O)O)cc1 [methotrexate]
[1]; RA patients about to change therapy to more efficacious drugs, FIG. 4C
  distribution of inflammation index values in comparison to the normal distribution: skewed upward
[1]
  inflammation index compared to normal: elevated compared to normal

## anakinra [kineret]
[2]; [5]
  number of genes still over-expressed to some extent: 7
  number of genes transitioned to the under-expressed category: 4
[2]; end of the study, FIG. 17
  expression of PTGS2 (COX2) versus normal: not statistically significantly different from normal
[2]; from the start of the study until the end, FIG. 17
  values of CD19 expression versus normals: all under-expressed
[2]; week 4, normals n=69, FIG. 17
  relative expression of the genes overexpressed at start (11 of 12 genes) versus normals: still over-expressed at week 4 but less so
[3]
  joint counts, MD assessment and patient self-score over the course of the study: all went down
[3]; after 4 weeks
  Disease Activity Score (DAS): 5.35
[3]; end of the study
  Disease Activity Score (DAS): 4.88

## infliximab [Remicade]
[1]; 10 clinically stable RA patients, FIG. 11
  abnormally low inflammation index in two of the patients: suggesting an immunosuppressive response
[1]
  inflammation index compared to normal: at or below normal
[4]
  association with serious infections: associated with serious infections in some subjects
